Experiments:
[1] = test system: Rhinovirus of the common cold; assay: Ingesting sulfite at first symptoms of the common cold (inventor's self-administration); assay type: in vivo; details: oral, 250 mg every 4 hours for 24 hours, started at first symptoms (within 48 hours); the inventor themself
Procedure: It appears to be important that this be started within 48 hours of first appearance of the symptoms although data is lacking on using the agent later in the course of the infection. The stated quantities are effective but might be refined. The total quantity in the above example is equivalent to drinking 4 bottles of some wines or ingesting 500 gm of certain dried fruits. Application of this example to Covid 19 would be a first TREATMENT for this disease.

[2] = sulfur dioxide gas in water at pH above 3; cited from earlier work

SMILES | course of common cold symptoms after ingestion [1] | pKa2 [2]
O=S([O-])S(=O)(=O)[O-].[K+].[K+] [K. metabisulfite] | symptoms clear without progressing to a full cold | –
O=S(O)O [sulfurous acid] | – | ~7
